The nature of data set [1]: Mechanical properties measurement (3-point bend tests). Type of data set: physicochemical. The protocol: In this example, the elastic modulus, ultimate strength, and work of fracture were determined for the monomers of the present invention. […] The resin was injected into the mold and cured by irradiation (500 mW/cm^2) followed by storage in the dark for 4 hours and 24 hours before mechanical tests were conducted. Three point bending tests were conducted using an electromagnetic mechanical testing machine (Enduratec Model 3200) with a 20-mm span and at a crosshead displacement rate of 0.5mm/ min at room temperature (25° C.). Load-displacement data were collected at 100 Hz. […] Flexural ultimate strength was determined from the peak loads and work of fracture was determined from the area under the stress-strain curve.

Data set [2] can be described thus: Photopolymerization stress measurement (tensilometer). Type of data set: physicochemical. As to the method:
In this example, the photopolymerization stress of the monomers of the present invention was investigated. Stress generated during photopolymerization was measured (n=3) using an electromagnetic mechanical testing machine (Enduratec Model 3200, Bose Corp., Minnetonka, Minn.) adapted to be a tensilometer. See Feilzer et al., Dent. Mater. […] Briefly, two identical glass rods, 5 mm in diameter, were placed opposing one another and separated by 1 mm (C-factor=2.5). A displacement transducer (LVDT, Enduratec, 0.1 μm resolution, range ±1 mm) was mounted on one glass rod and was touching a plate attached to the opposing glass rod. The distance between the mounts on the opposing glass rods was about 9 mm (including the 1 mm separation between the rods). Samples placed between the glass rods were cured by irradiation (500 mW/cm^2), while under LVDT displacement control. Load-displacement data were collected at 200 Hz for 30 mins. […] From the load-displacement data, peak loads were obtained and normalized by the original area to obtain the polymerization stresses.

Where [3] appears, read: 4-hour Post Cure, 10 mol % TOSU in SIL-MIX.
Setting [4] is: 4-hour Post Cure, 25 mol % TOSU in SIL-MIX.
Setting [5] is: 24-hour Post Cure, 10 mol % TOSU in SIL-MIX.
Where [6] appears, read: 24-hour Post Cure, 25 mol % TOSU in SIL-MIX.

The structures appear in SMILES notation. Marks after values point to notes of the source that are not given here.

For the compound `CCC1(COCCC[Si](C)(C)C)COC2(OC1)OCC(CC)(COCCC[Si](C)(C)C)CO2` (centres unmarked) [Monomer 6, 3,9-diethyl-3,9-bis(3-trimethylsilylpropyloxymethyl)-1,5,7,11-tetraoxaspiro[5.5]undecane], the Flexural elastic modulus in data set [1] (4-h Post Cure, 10 mol % TOSU in SIL-MIX) is 1.61 (0.17)^a GPa; in data set [1] (4-h Post Cure, 25 mol % TOSU in SIL-MIX) it was 1.33 (0.18)^a GPa; in data set [1] (24-h Post Cure, 10 mol % TOSU in SIL-MIX) it was 2.41 (0.24)^b GPa; in data set [1] (24-h Post Cure, 25 mol % TOSU in SIL-MIX), 1.87 (0.06)^a GPa. For the same compound, the Flexural strength in data set [1] (setting [3]) is recorded as 58.77 (19.08)^a,b MPa; in data set [1] (setting [4]), 30.90 (11.36)^a MPa; in data set [1] (setting [5]), 76.90 (10.19)^a,b MPa; in data set [1] (setting [6]) it was 56.63 (11.11)^a MPa. Besides, the Work of Fracture in data set [1] (setting [3]) was 2.67 (1.25)^a kJ/m^2; in data set [1] (setting [4]), 0.73 (0.38)^a kJ/m^2; in data set [1] (setting [5]), 3.07 (0.81)^a,b kJ/m^2; in data set [1] (setting [6]), 1.80 (0.87)^a kJ/m^2. The “24-hour modulus values as % of those for SIL-MIX alone” value in data set [1] (10 mol % TOSU) is reported as 77%; in data set [1] (25 mol % TOSU), 60%. Moreover, the “24-hour strength values as % of those for SIL-MIX alone” value worked out at 84% in data set [1] (10 mol % TOSU); 85% in data set [1] (10 mol % TOSU, listed as TOSU); 60% in data set [1] (25 mol % TOSU). Further, the “24-hour work of fracture values as % of those for SIL-MIX alone” value in data set [1] (10 mol % TOSU) is 100%; in data set [1] (25 mol % TOSU), 66%. For the same compound, the “polymerization stress values less than SIL-MIX alone” value amounted to 80% in data set [2] (10 mol % TOSU) and 96% in data set [2] (25 mol % TOSU). In addition, the Photopolymerization stress was 0.3(0.1) N/mm^2 in data set [2] (SIL-MIX/6 75/25 mol/mol) and 2.1(0.2) N/mm^2 in data set [2] (SIL-MIX/6 90/10 mol/mol).

Values taken from patent US20070072954A1, “Novel tetraoxaspiroalkanes and methods of use with organosilicon monomers in polyerizable compositions” (Curators of the University of Missouri, priority 2005, published 2007).
